Measurements published in patent US5955357A, “In-vitro-derived human neutrophil precursor cells” (Nexell Therapeutics Inc., priority 1994, dated 1999).

B1: G-CSF: hematopoietic growth factor, granulocyte colony-stimulating factor (protein, UniProt P09919 31-207, looked up)
Granulocyte …: TPLGPASSLPQSFLLKCLEQVRKIQGDGAALQEKLVSECATYKLCHPEELVLLGHSLGIPWAPLSSCPSQALQLAGCLSQLHSGLFLYQGLLQALEGISPELGPTLDTLQLDVADFATTIWQQMEELGMAPALQPTQGAMPAFASAFQRRAGGVLVASHLQSFLEVSYRVLRHLAQP

Tested on: CD15+CD11b- neutrophil precursors
Assay: single cell proliferation assay of sorted neutrophil precursors in hematopoietic growth factors
Assay type: cell-based, human
Settings: after 10 days in culture; for Percent of Total Cells Evaluated, 0 Cells/Wells / Percent of Total Cells Evaluated, 1-4 Cells/Well / Percent of Total Cells Evaluated, 5-8 Cells/Well / Percent of Total Cells Evaluated, 9-16 Cells/Well / Percent of Total Cells Evaluated, 17-32 Cells/Well / Percent of Total Cells Evaluated, >32 Cells/Well: Table V, individual growth factors, neutrophil precursors
Description: Apheresis samples were collected after peripheral blood counts reached 1000/ul from patients mobilized with G-CSF (10 ug/kg/day) following cyclophosphamide/VP16 chemotherapy. Apheresis was performed using the CS-3000® blood cell separator (Fenwal Division, Baxter Healthcare, Deerfield, Ill.). Bone marrow was collected from normal volunteers.
The assays were performed by sorting single cells based upon expression of CD15 and CD11b by flow cytometry into multiwell plates containing 10 ul of culture media with various growth factor combinations. […] The same studies were performed on fresh bone marrow for comparison. Plates containing the sorted cells were incubated at 37° C. and the number of cells in each well were counted on days 1, 3 and 10. For further characterization of antigenic expression, cells at varying timepoints of culture were stained with the following antigenic combinations: FITC-CD15/PE-CD11b, FITC-CD71/PE-CD45RA,and FITC-CD67/PE-CD34.
To assess the absolute requirement of growth factors on the proliferation of neutrophil precursors, single cells were plated in the presence or absence of all four growth factors described above. The single cell cultures were incubated for an additional 10 days and then each well was scored for the number of total cells. The wells were categorized according to the number of cells per well.
To determine which single growth factor or combination of growth factors would support proliferation of neutrophil precursors, various combinations of the above growth factors were tested in the single cell proliferation assay.

Molecule	Percent of Total Cells Evaluated, 0 Cells/Wells [%]	Percent of Total Cells Evaluated, 1-4 Cells/Well [%]	Percent of Total Cells Evaluated, 5-8 Cells/Well [%]	Percent of Total Cells Evaluated, 9-16 Cells/Well [%]	Percent of Total Cells Evaluated, 17-32 Cells/Well [%]	Percent of Total Cells Evaluated, >32 Cells/Well [%]	fraction of proliferating neutrophil precursors and extent of proliferation, compared with other growth factors (result in words)
GM-CSF: hematopoietic growth factor, granulocyte and macrophage colony-stimulating factor	33	44	12	6	4	1	
SCF: hematopoietic growth factor, stem cell factor	25	52	13	8	2	1	
B1	22	40	10	10	6	13	enhances proliferation to a greater extent then either GM-CSF, IL-3 or SCF alone
